According to PubChem BioAssay (NCI):
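Interpolation was linear, between the two tested concentrations surrounding the appropriate level; five concentrations were tested over 48 hours in 96-well plates. GI50 marks 50% less growth. TGI is the concentration that stops growth completely.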

Tests used:
Experiment in all cases: NCI tumour cell line growth inhibition, 48 h
[1] = system: 786-0 renal
[2] = system: ACHN renal
[3] = system: BT-549 breast
[4] = system: HCT-116 colon
[5] = system: HCT-15 colon
[6] = system: OVCAR-3 ovarian
[7] = system: SF-268 CNS
[8] = system: SF-539 CNS
[9] = system: SR leukemia
[10] = system: SW-620 colon

Compound | TGI [1] [µM] | TGI [2] [µM] | TGI [3] [µM] | TGI [4] [µM] | TGI [5] [µM] | TGI [6] [µM] | TGI [7] [µM] | TGI [8] [µM] | TGI [9] [µM] | TGI [10] [µM] | GI50 [2] [µM] | GI50 [3] [µM] | GI50 [4] [µM] | GI50 [5] [µM] | GI50 [6] [µM] | GI50 [7] [µM] | GI50 [8] [µM] | GI50 [9] [µM] | GI50 [10] [µM]
COc1ccccc1NC(=O)CC(=O)NN | > 100 | > 100 | > 100 | > 100 | > 100 | > 100 | > 100 | > 100 | > 100 | > 100 | – | – | – | – | – | – | – | – | –
COc1ccccc1C1C(C#N)=C(N)Oc2n[nH]c(C)c21 (stereo not drawn) | – | > 100 | > 100 | > 100 | > 100 | > 100 | > 100 | > 100 | > 100 | > 100 | > 100 | > 100 | 90.7 | > 100 | > 100 | > 100 | > 100 | 37.8 | > 100
CCOC(=O)CCC(C(=O)OCC)n1nnc2cc(Nc3c(C)[n+]([O-])c4cc(F)c(OCC)cc4[n+]3[O-])ccc21 (stereo not drawn) | > 100 | > 100 | > 100 | > 100 | > 100 | > 100 | 94.9 | > 100 | > 100 | > 100 | – | – | – | – | – | – | – | – | –
Cc1c2cccc-2ccc2c3ccccc3n(C(=O)c3ccc(Cl)cc3)c12 | > 100 | > 100 | > 100 | > 100 | > 100 | > 100 | > 100 | > 100 | > 100 | > 100 | – | – | – | – | – | – | – | – | –
Oc1ccc(-c2nc3ccccc3s2)cc1 | > 100 | > 100 | > 100 | 74.9 | > 100 | > 100 | 90.2 | > 100 | 87.7 | > 100 | – | – | – | – | – | – | – | – | –
COc1cc2nc(-c3cccs3)nc(Nc3cccc(Cl)c3)c2cc1OC | > 100 | > 100 | > 100 | > 100 | > 100 | > 100 | > 100 | > 100 | > 100 | > 100 | – | – | – | – | – | – | – | – | –
O=C(Nc1nn[nH]n1)c1nc(-c2ccccc2)cc(=O)[nH]1 | > 100 | > 100 | > 100 | > 100 | > 100 | > 100 | > 100 | > 100 | > 100 | > 100 | – | – | – | – | – | – | – | – | –
CCOc1cc2c(cc1O)C(O)C[C@@H]1[C@@H]2CC[C@]2(C)[C@@H](O)CC[C@@H]12 (stereo partly drawn) | > 83 | > 100 | > 100 | > 100 | > 100 | > 100 | > 100 | 3.6 | > 100 | > 100 | – | – | – | – | – | – | – | – | –
CC1CCC2(OC1)OC1C(O)C3C4CCC5CC(OC6OC(CO)C(OC7OC(CO)C(O)C(OC8OCC(O)C(O)C8O)C7OC7OC(CO)C(O)C(OC8OC(CO)C(O)C(O)C8O)C7O)C(O)C6O)C(O)CC5(C)C4CCC3(C)C1C2C (stereo not drawn) | 2.96 | 3.08 | 3.19 | 3.36 | 12.2 | 3.32 | 4.85 | 10.9 | 18.8 | 98.4 | – | – | – | – | – | – | – | – | –
